Structures are written as SMILES.

Data set [1] addresses T1, CYP2C9 (Homo sapiens, UniProt P11712). Put plainly: Inhibitory activity of 20 uM SPP100 on 227 Pmoles of cDNA-derived CYP2C9 enzyme in microsome prepared from human lymphoblastoid cell line. Type of data set: ADME, microsomes. More on the design: conc 20 uM, interact cpd conc 6 uM. Particulars: probe diclofenac.
Data set [2] is described as follows: AUC of SPP100 following single intravenous dose of [14C] aliskiren hemifumarate at 1 mg.Kg-1 level in marmoset. It is filed as ADME, organism-based, Callithrix jacchus, Plasma. As to conditions: in vivo.
The next data set addresses T2, CYP2A6 (Homo sapiens, UniProt P11509).
T2 sequence (P11509 whole entry): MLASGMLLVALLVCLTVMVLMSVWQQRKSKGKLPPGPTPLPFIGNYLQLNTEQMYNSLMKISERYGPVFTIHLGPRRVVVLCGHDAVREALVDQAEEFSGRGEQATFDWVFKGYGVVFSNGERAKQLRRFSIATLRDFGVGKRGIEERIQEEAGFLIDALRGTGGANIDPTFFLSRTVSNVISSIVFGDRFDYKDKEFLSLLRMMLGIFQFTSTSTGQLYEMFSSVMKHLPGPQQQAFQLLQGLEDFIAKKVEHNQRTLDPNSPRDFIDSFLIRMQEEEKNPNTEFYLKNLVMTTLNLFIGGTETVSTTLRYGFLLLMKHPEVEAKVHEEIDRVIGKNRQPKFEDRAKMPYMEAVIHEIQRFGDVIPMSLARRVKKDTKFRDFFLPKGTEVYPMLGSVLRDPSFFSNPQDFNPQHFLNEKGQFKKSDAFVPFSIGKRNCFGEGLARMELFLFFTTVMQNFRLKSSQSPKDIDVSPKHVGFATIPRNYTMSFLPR
Put plainly: Inhibitory activity of 20 uM SPP100 on 37 Pmoles of cDNA-derived CYP2A6 enzyme in microsome prepared from human lymphoblastoid cell line. Type of data set: ADME, microsomes. More on the design: conc 20 uM, interact cpd conc 3 uM. Particulars: probe coumarine.

Data set [3] addresses T1, CYP2C9. Kind of data set: Inhibitory activity of 200 uM SPP100 on 201 Pmoles of cDNA-derived CYP2C9 enzyme in microsome prepared from human lymphoblastoid cell line. As to conditions: probe diclofenac. Also noted: conc 200 uM, interact cpd conc 6 uM. Type of data set: ADME, microsomes.
A short description of data set [4]: Tmax (0-96h) of total radioactivity following oral administration of [14C] aliskiren hemifumarate at 100 mg.Kg-1 level in rat. Type of data set: ADME, organism-based, Albino HAN:WIST, Plasma. Particulars: in vivo.
A short description of data set [5]: Faecal elimination of aliskiren following single oral dose of [14C] aliskiren hemifumarate at 500 mg.Kg-1 level in mouse. It is filed as ADME, organism-based, TgRasH2, Feces. Particulars: in vivo.
Data set [6] is described as follows: Cmax (0-96h) of total radioactivity following oral administration of [14C] aliskiren hemifumarate at 100 mg.Kg-1 level in rat. It is filed as ADME, organism-based, Albino HAN:WIST, Plasma. Particulars: in vivo.
The nature of data set [7]: Tmax of radioactivity following repeated oral administration of [14C] aliskiren hemifumarate at 100 mg.Kg-1 level studied after 2h of dosing on day 10 in rat. Type of data set: ADME, organism-based, Albino HAN:WIST. As to conditions: in vivo.
The nature of data set [8]: AUC/dose (0-168h) of total radioactivity following single intravenous administration of [14C] aliskiren hemifumarate at 1 mg.Kg-1 level in marmoset. Particulars: in vivo. Type of data set: ADME, organism-based, Callithrix jacchus, Plasma.
Data set [9] is described as follows: Excretion (0-96h) of 14C-radioactivity in faeces following single oral dose of 300 mg [14C]SPP100 studied in healthy men. Type of data set: ADME, organism-based, Feces. Particulars: human, in vivo, at 300 mg.
The nature of data set [10]: Excretion (0-24h) of radioactivity in urine following intravenous administration of [14C] aliskiren hemifumarate at 1 mg.Kg-1 level in marmoset. It is filed as ADME, organism-based, Callithrix jacchus. As to conditions: in vivo.
A short description of data set [11]: Excretion of radioactivity (0-72h) in urine following single oral dose of 500 mg.Kg-1 [14C] aliskiren hemifumarate in mouse. It is filed as ADME, organism-based, TgRasH2. Particulars: in vivo.
Data set [12] is described as follows: Biliary elimination of aliskiren following single intravenous dose of [14C] aliskiren hemifumarate at 10 mg.Kg-1 level in mouse. It is filed as ADME, organism-based, TgRasH2, Bile. As to conditions: in vivo.
Data set [13] can be described thus: % of radioactivity (48h) recovered in urine of receiver rat following duodenal infusion of radioactivity through bile from donor rat treated with single intravenous administration of 10 mg.Kg-1 [14C] aliskiren hemifumarate. It is filed as ADME, organism-based, HAN:WIST(SPF). As to conditions: in vivo.
Data set [14] can be described thus: Cmax of aliskiren hemifumarate following 2 week oral dosing of aliskiren hemifumarate at 10 mg.Kg-1 level studied on day 1 in male Callithrix jacchus. Type of data set: ADME, organism-based. Particulars: marmoset, plasma.
A short description of data set [15]: Cmax/dose (0-96h) of unlabeled aliskiren hemifumarate following intravenous administration of aliskiren hemifumarate at 10 mg.Kg-1 level in rat. It is filed as ADME, organism-based, Albino HAN:WIST, Plasma. Particulars: in vivo.
A short description of data set [16]: AUC/dose (0-96h) of unlabeled aliskiren hemifumarate following oral administration of aliskiren hemifumarate at 100 mg.Kg-1 level in rat. Type of data set: ADME, organism-based, Albino HAN:WIST, Plasma. Particulars: in vivo.
A short description of data set [17]: Cmax of aliskiren hemifumarate following 2 week oral dosing of aliskiren hemifumarate at 10 mg.Kg-1 level studied on […] in male Callithrix jacchus. Type of data set: ADME, organism-based. As to conditions: marmoset, plasma.
The nature of data set [18]: Effect of 2 week oral dosing of aliskiren hemifumarate at 100 mg.Kg-1 level on plasma alkaline phosphatase level in female Callithrix jacchus. It is filed as toxicity, organism-based. As to conditions: marmoset, 336 h.
Data set [19] in a line: AUC of aliskiren hemifumarate following single dosing of SPP100B oral solution at 160 mg level studied on day 1 in men. It is filed as ADME, organism-based. Particulars: male, human, plasma.
The nature of data set [20]: Effect of 2 week oral dosing of aliskiren hemifumarate at 50 mg.Kg-1 level on plasma magnesium level in female Callithrix jacchus. It is filed as toxicity, organism-based. Particulars: marmoset, 336 h.
The nature of data set [21]: Cmaxspec of aliskiren hemifumarate following 2 week oral dosing of aliskiren hemifumarate at 50 mg.Kg-1 level studied on day 1 in male Callithrix jacchus. Type of data set: ADME, organism-based, Plasma. Particulars: marmoset, in vivo, 336 h.
The nature of data set [22]: AUC(0-24h) of aliskiren hemifumarate following 2 week oral dosing of aliskiren hemifumarate at 50 mg.Kg-1 level studied on day 14 in female Callithrix jacchus. Type of data set: ADME, organism-based. Particulars: marmoset, plasma.
Data set [23] in a line: AUCspec of aliskiren hemifumarate following 2 week oral dosing of aliskiren hemifumarate at 50 mg.Kg-1 level studied on day 1 in male Callithrix jacchus. It is filed as ADME, organism-based, Plasma. As to conditions: marmoset, in vivo, 336 h.
Data set [24] in a line: AUC of aliskiren hemifumarate following single dosing of SPP100B oral solution at 640 mg level studied on day 1 in men. As to conditions: male, human, plasma. It is filed as ADME, organism-based.
A short description of data set [25]: Cmax/dose of aliskiren hemifumarate following 4 week oral dietary dosing of aliskiren hemifumarate at 1000 mg.Kg-1 level in male mouse. Type of data set: ADME, organism-based, CB6F1-TGrasH2. As to conditions: in vivo, 672 h.
Data set [26] is described as follows: AUC (0-24h) of aliskiren hemifumarate following 4 week oral dietary dosing of aliskiren hemifumarate at 2000 mg.Kg-1 level in male mouse. It is filed as ADME, organism-based. As to conditions: CB6F1-TGrasH2, mouse, plasma.
The next data set has as its target hERG (KCNH2) (Homo sapiens, UniProt Q12809). Put plainly: Effects of 1000 uM aliskiren hemifumarate on current through cloned hERG channel expressed in human embryonic kidney cell. It is filed as cell-based. More on the design: conc 1000 uM, dose level High. Particulars: HEK293 cells that express cloned hERG channel, read-out: Inhibitory activity.
Data set [27] is described as follows: Absorption (0-96h) of unlabeled aliskiren hemifumarate following oral administration of aliskiren hemifumarate at 100 mg.Kg-1 level in rat. It is filed as ADME, organism-based. As to conditions: Albino HAN:WIST, plasma, read-out: Absorption.
The nature of data set [28]: Tmax of unlabeled aliskiren hemifumarate following single oral dose of aliskiren hemifumarate at 500 mg.Kg-1 level in mouse. Type of data set: ADME, organism-based. Particulars: TgRasH2, mouse, plasma.
The nature of data set [29]: Cmaxspec of aliskiren hemifumarate following 2 week oral dosing of aliskiren hemifumarate at 10 mg.Kg-1 level studied on day 14 in female Callithrix jacchus. Type of data set: ADME, organism-based, Plasma. As to conditions: marmoset, in vivo, 336 h.
Data set [30] is described as follows: Cmaxspec of aliskiren hemifumarate following 2 week oral dosing of aliskiren hemifumarate at 100 mg.Kg-1 level studied on day 14 in female Callithrix jacchus. Type of data set: ADME, organism-based, Plasma. As to conditions: marmoset, in vivo, 336 h.
Data set [31] in a line: AUC of aliskiren hemifumarate following 8 day once-daily dosing of SPP100B oral solution at 80 mg level studied on day 8 in men. Type of data set: ADME, organism-based. As to conditions: male, human, plasma.

T1 sequence (P11712 whole entry): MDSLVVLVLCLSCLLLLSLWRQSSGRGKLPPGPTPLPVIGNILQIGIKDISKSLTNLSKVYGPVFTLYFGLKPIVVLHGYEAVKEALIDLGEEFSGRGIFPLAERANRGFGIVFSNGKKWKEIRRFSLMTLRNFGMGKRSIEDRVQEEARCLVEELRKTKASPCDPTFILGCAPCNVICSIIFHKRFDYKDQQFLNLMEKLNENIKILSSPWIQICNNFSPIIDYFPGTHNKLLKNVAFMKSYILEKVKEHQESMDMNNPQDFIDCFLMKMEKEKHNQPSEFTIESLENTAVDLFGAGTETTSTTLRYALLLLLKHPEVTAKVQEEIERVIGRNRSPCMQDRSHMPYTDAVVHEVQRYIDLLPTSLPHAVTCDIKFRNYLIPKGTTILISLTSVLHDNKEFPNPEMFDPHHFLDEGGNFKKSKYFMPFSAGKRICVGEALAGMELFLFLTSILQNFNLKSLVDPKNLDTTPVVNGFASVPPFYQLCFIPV
Sequence of hERG (KCNH2) (Q12809 whole entry): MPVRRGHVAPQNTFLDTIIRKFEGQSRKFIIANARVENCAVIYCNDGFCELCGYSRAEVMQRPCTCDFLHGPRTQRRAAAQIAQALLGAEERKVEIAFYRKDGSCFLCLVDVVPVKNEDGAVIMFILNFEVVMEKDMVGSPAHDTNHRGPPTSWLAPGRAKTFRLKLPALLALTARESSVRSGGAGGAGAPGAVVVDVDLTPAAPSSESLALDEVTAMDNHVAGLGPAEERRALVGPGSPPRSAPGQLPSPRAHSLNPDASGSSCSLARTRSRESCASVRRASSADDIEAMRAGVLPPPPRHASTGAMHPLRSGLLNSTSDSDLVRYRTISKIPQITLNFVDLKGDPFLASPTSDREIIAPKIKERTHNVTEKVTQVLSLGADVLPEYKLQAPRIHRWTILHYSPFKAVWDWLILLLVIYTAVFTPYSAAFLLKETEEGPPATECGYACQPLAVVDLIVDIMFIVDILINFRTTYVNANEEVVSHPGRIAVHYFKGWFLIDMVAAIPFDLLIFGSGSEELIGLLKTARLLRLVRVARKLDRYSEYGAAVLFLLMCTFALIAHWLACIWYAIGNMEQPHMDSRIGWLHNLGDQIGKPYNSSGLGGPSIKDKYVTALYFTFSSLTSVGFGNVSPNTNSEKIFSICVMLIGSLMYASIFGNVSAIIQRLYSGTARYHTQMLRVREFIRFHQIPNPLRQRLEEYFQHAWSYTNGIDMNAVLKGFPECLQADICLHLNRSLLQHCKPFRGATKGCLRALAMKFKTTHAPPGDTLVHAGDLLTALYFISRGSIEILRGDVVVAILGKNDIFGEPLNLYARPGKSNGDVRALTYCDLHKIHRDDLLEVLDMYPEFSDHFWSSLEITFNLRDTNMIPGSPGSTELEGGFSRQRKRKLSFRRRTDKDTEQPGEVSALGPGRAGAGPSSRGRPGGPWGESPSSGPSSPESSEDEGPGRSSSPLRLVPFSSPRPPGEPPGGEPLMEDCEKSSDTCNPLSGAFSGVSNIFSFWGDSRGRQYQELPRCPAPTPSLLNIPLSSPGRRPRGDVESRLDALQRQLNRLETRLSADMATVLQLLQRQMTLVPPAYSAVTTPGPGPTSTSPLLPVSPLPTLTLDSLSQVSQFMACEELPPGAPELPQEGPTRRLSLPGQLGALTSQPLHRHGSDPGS

On to `COCCCOc1cc(C[C@@H](C[C@H](N)[C@@H](O)C[C@H](C(=O)NCC(C)(C)C(N)=O)C(C)C)C(C)C)ccc1OC`, for which the inhibition at 20 µM at CYP2C9 [1] turned out to be 13.1%; at CYP2A6, 2.6%. Besides, in data set [2], the AUC worked out at 23806 ng·h/mL. In addition, the inhibition at 200 µM against CYP2C9 [3] was 23%.

Take `COCCCOc1cc(C[C@@H](C[C@H](N)[C@@H](O)C[C@H](C(=O)NCC([14CH3])([14CH3])C(N)=O)C(C)C)C(C)C)ccc1OC.O=C(O)/C=C/C(=O)O`: the Tmax is 0.25 h in data set [4] and 0.083 h in [4] (iv, 10 mg/kg). The Radiolabel recovery result in [5] is “OUTCOME = Observed, VALUE = Elimination of aliskiren occurred mainly via the biliary or faecal route”; in data set [9], 88.17%; in data set [10] it was 0.61%; in data set [11] it was 1.84%; in data set [12], “OUTCOME = Observed, VALUE = Elimination of aliskiren occurred mainly via the biliary or faecal route”; in [13], 0.6%. In addition, the Cmax in data set [6] amounted to 0.416 µM; in data set [6] (iv, 10 mg/kg), 21.2 µM. Besides, the “Tmax(10)” value in [7] turned out to be 218 h. The AUC normalised in data set [8] is given as 52.92 (umol.h/L)/(mg/kg).

Take `COCCCOc1cc(C[C@@H](C[C@H](N)[C@@H](O)C[C@H](C(=O)NCC(C)(C)C(N)=O)C(C)C)C(C)C)ccc1OC.COCCCOc1cc(C[C@@H](C[C@H](N)[C@@H](O)C[C@H](C(=O)NCC(C)(C)C(N)=O)C(C)C)C(C)C)ccc1OC.O=C(O)/C=C/C(=O)O` [ALISKIREN FUMARATE]: the Cmax was found to be 3960 ng/mL in data set [14] and 5770 ng/mL in data set [17]. Also, the Cmax normalised is given as 2.92 (umol/L)/(mg/kg) in data set [15]; 0.126 (ug/ml)/(mg/kg) in data set [21]; 0.879 (ng/mL)/(mg/kg/day) in data set [25]; 0.673 (ug/ml)/(mg/kg) in data set [29]; 0.106 (ug/ml)/(mg/kg) in data set [30]. The figures for the AUC normalised in data set [16] and in [23] were 0.03 (umol.h/L)/(mg/kg) and 1.16 ((ug.h.ml-1)/(mg/kg), respectively. For the same molecule, the ALP_CHANGE_TO result in data set [18] is recorded as “OUTCOME = 2-fold increase over initial values. No animals died during the study”. Besides, the AUC in data set [19] was 215 ng·h/mL; in [24], 1190 ng·h/mL. Besides, in data set [20], the “Plasma magnesium_CHANGE_BY” value was 130%. This molecule gave an AUC at 24 h in data set [22] of 109000 ng·h/mL. This molecule also registered an AUC(0-t) at 24 h in data set [26] of 7720 ng·h/mL. In addition, on hERG (KCNH2), the inhibition at 1000 µM is 32%. In addition, the Fa in data set [27] is no less than 3.4%. Further, the Tmax in [28] was found to be 1 h. The same molecule had an AUC at 192 h in data set [31] of 137 ng·h/mL.
